Data reported in patent publication US9422293B2 (priority 2006, dated 2016).
Where a name gives a salt, the structure may show the parent alone.

Each compound was assayed against T1, rat TRPV1 (Rattus norvegicus (Rat), UniProt O35433) (assay: not given). Settings: read-out: Rat IC50.
T1 sequence (O35433 whole entry): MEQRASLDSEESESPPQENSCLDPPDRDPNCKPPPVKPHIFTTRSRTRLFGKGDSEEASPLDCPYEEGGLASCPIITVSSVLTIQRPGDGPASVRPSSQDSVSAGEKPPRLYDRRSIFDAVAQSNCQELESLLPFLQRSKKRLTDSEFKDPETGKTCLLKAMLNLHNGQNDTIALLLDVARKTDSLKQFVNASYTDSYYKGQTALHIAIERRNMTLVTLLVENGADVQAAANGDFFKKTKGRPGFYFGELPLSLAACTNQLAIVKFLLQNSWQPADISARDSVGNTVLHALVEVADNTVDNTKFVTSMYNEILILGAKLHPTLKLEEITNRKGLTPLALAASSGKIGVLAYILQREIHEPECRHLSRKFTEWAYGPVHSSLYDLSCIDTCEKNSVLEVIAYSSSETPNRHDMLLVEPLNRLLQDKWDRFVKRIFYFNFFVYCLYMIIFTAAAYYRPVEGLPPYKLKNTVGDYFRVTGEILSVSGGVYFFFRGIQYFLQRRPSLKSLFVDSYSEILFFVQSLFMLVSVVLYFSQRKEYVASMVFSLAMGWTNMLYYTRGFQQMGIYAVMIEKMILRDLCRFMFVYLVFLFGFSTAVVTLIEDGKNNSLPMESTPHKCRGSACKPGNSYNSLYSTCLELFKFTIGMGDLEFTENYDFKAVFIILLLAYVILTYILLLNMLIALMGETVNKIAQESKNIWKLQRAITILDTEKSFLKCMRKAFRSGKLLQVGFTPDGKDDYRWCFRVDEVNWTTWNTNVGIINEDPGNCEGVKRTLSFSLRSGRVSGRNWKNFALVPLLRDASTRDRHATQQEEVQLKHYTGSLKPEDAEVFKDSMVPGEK
`CC(C)(C#N)c1ccc(Nc2nc(N3CCOCC3)nc3c2CCN(c2ncccc2C(F)(F)F)CC3)cc1` [Example 382, 2-Methyl-2-{4-[2-morpholin-4-yl-7-(3-trifluoromethyl-pyridin-2-yl)-6,7,8,9-tetrahydro-5H-pyrimido[4,5-d]azepin-4-ylamino]-phenyl}-propionitrile] gave an IC50 of 40 nM. For `CCS(=O)(=O)c1cccnc1N1CCc2ncnc(Nc3ccc(C(F)(F)F)cc3)c2CC1` [Example 301, 7-[3-(Ethylsulfonyl)pyridin-2-yl]-N-[4-(trifluoromethyl)phenyl]-6,7,8,9-tetrahydro-5H-pyrimido[4,5-d]azepin-4-amine], the IC50 was 8970 nM. For `CC(C)(C)c1ccc(Nc2nc(C3CC3)nc3c2CCN(c2ncccc2C(F)(F)F)CC3)cc1` [Example 3, (4-tert-Butyl-phenyl)-[2-cyclopropyl-7-(3-trifluoromethyl-pyridin-2-yl)-6,7,8,9-tetrahydro-5H-pyrimido[4,5-d]azepin-4-yl]-amine], the IC50 was 95 nM.

Each compound was assayed against T1, rat TRPV1 (assay: cell-based). Settings: Rat IC50 (μM).
`FC(F)(F)c1ccc(Nc2nc(NC3CCOC3)nc3c2CCN(c2ncccc2C(F)(F)F)CC3)cc1` (centres unmarked) [Example 265, N^2-(Tetrahydro-furan-3-yl)-N^4-(4-trifluoromethyl-phenyl)-7-(3-trifluoromethyl-pyridin-2-yl)-6,7,8,9-tetrahydro-5H-pyrimido[4,5-d]azepine-2,4-diamine trifluoroacetic acid salt] gave an IC50 of 0.39 µM. `CC(C)c1nc2c(c(Nc3ccc(Br)cc3)n1)CCN(c1ncccc1C(F)(F)F)CC2` [Example 46, (4-Bromo-phenyl)-[2-isopropyl-7-(3-trifluoromethyl-pyridin-2-yl)-6,7,8,9-tetrahydro-5H-pyrimido[4,5-d]azepin-4-yl]-amine] was tested, and the IC50 was 0.38 µM. `CC1CCCCN1c1nc2c(c(Nc3ccc(C(F)(F)F)cc3)n1)CCN(c1ncccc1C(F)(F)F)CC2` (centres unmarked) [Example 246, 2-(2-Methylpiperidin-1-yl)-N-[4-(trifluoromethyl)phenyl]-7-[3-(trifluoromethyl)pyridin-2-yl]-6,7,8,9-tetrahydro-5H-pyrimido[4,5-d]azepin-4-amine hydrochloride salt] showed an IC50 of […]. `Cc1nc(-c2nc3c(c(Nc4ccc(C(F)(F)F)cc4)n2)CCN(c2ncccc2C(F)(F)F)CC3)cs1` [Example 153, 2-(2-Methyl-1,3-thiazol-4-yl)-N-[4-(trifluoromethyl)phenyl]-7-[3-(trifluoromethyl)pyridin-2-yl]-6,7,8,9-tetrahydro-5H-pyrimido[4,5-d]azepin-4-amine trifluoroacetic acid salt] showed an IC50 of 0.14 µM. With `CC1CCCCN1c1nc2c(c(Nc3ccc(C(F)(F)F)cc3)n1)CCN(c1ncccc1C(F)(F)F)CC2` (single isomer, unassigned) [Example 277, 2-[(2R or 2S)-2-Methylpiperidin-1-yl]-N-[4-(trifluoromethyl)phenyl]-7-[3-(trifluoromethyl)pyridin-2-yl]-6,7,8,9-tetrahydro-5H-pyrimido[4,5-d]azepin-4-amine] the IC50 was […]. `CC(C)(C)c1ccc(Nc2nc(C(C)(C)C)nc3c2CCN(c2ncccc2C(F)(F)F)CC3)cc1` [Example 138, 2-(1,1-Dimethylethyl)-N-[4-(1,1-dimethylethyl)phenyl]-7-[3-(trifluoromethyl)pyridin-2-yl]-6,7,8,9-tetrahydro-5H-pyrimido[4,5-d]azepin-4-amine] showed an IC50 of 0.03 µM. Compound `CC1CCCCN1c1nc2c(c(Nc3ccc(C(F)(F)F)cc3)n1)CCN(c1ncccc1C(F)(F)F)CC2` (single isomer, unassigned) [Example 276, 2-(2S or 2R)-2-Methylpiperidin-1-yl]-N-[4-(trifluoromethyl)phenyl]-7-[3-(trifluoromethyl)pyridin-2-yl]-6,7,8,9-tetrahydro-5H-pyrimido[4,5-d]azepin-4-amine] has an IC50 of […]. Work on `COC(=O)c1cnc(N2CCc3nc(S(C)(=O)=O)nc(Nc4ccc(C(F)(F)F)cc4)c3CC2)c(Cl)c1` [Example 211, Methyl 5-chloro-6-[2-(methylsulfonyl)-4-{[4-(trifluoromethyl)phenyl]amino}-5,6,8,9-tetrahydro-7H-pyrimido[4,5-d]azepin-7-yl]pyridine-3-carboxylate] yielded an IC50 of 11.4 µM.
